# Like-named read-outs stand apart in the source and are kept apart here.
# Experiments:
# TNF = test: PBMC assay: TNF cytokine levels after LPS stimulation (MSD); assay type: cell-based; conditions: PBMC, human PBMCs, 100 ng/ml LPS for 6 hrs
# Summary of the method: (§1)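 Cryopreserved human PBMCs (7.5×10^4/well) in RPMI/10% FBS were preincubated with serially diluted compound for 30 min at 37 °C, then stimulated with 100 ng/ml LPS for 6 h. Supernatant IL-1β and TNF measured by MSD. IC50 derived for IL-1β, EC50 for TNF.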
# IL-1β = test: PBMC assay: inhibition of IL-1β release after LPS stimulation (MSD); assay type: cell-based; conditions: PBMC, human PBMCs, 100 ng/ml LPS for 6 hrs, MSD, 96 well plates, read-out: IL1β IC50
# Summary of the method: as §1
SMILES,"EC50 (TNF; Homo sapiens, 6 h) [µM]","IC50 (IL-1β; Homo sapiens, 6 h) [nM]",EC50 (TNF) [µM],IC50 (IL-1β) [nM]
CC(C)c1nn(CC(=O)Nc2ccc3cnn(C)c3c2)c(=O)c2ccc(Br)cc12 [X-1033],> 20,848,,
CC(C)c1nn(CC(=O)Nc2ccc3cnn(C(F)F)c3c2)c(=O)c2ccc(Br)cc12 [X-1034],> 20,3010,,
CC(C)c1nn(CC(=O)N[C@@H]2CCCN(C3CC3)C2)c(=O)c2ccc(Br)cc12 [X-1035],> 20,32,,
CC(C)c1nn(CC(=O)Nc2ccc(=O)n(C)n2)c(=O)c2ccc(Br)cc12 [X-1036],> 20,141,,
CCc1nn(CC(=O)N[C@H]2C[C@@](C)(O)C2)c(=O)c2ccc(N(C)C)cc12 [X-1037],> 20,2340,,
CC(C)c1nn(CC(=O)Nc2ccncn2)c(=O)c2ccc(OC(F)(F)F)cc12 [X-1038],9.55,2510,,
CC(C)c1nn(CC(=O)N[C@H]2C[C@@](C)(O)C2)c(=O)c2ccc(OCC(F)(F)F)cc12 [X-1039],> 20,13000,,
CC(C)c1nn(CC(=O)Nc2ccc3nncn3c2)c(=O)c2ccc(OC(F)(F)F)cc12 [X-1040],7.19,1130,,
CC(C)c1nn(CC(=O)N[C@H]2C[C@@](C)(O)C2)c(=O)c2ccc(OC(F)(F)F)cc12 [X-1041],> 20,1330,,
CCOC(C)c1ccc2c(=O)n(CC(=O)N[C@H]3C[C@@](C)(O)C3)nc(C(C)C)c2c1 (stereo partly drawn) [X-1042],> 20,12200,,
CC(C)c1nn(CC(=O)N[C@H]2C[C@@](C)(O)C2)c(=O)c2ccc(C(C)(C)O)cc12 [X-1043],> 20,11000,,
CC(C)c1nn(CC(=O)Nc2ccncn2)c(=O)c2ccc(C(C)(C)O)cc12 [X-1044],8.29,4380,,
CC(C)c1nn(CC(=O)Nc2ccc3nncn3c2)c(=O)c2ccc(C(C)(C)O)cc12 [X-1045],> 20,3760,,
CC(C)c1nn(CC(=O)Nc2ccc3nncn3c2)c(=O)c2ccc(N(C)C)cc12 [X-1046],> 20,422,,
CC(C)c1nn(CC(=O)N[C@H]2C[C@@](C)(O)C2)c(=O)c2ccc(N(C)C)cc12 [X-1047],> 20,1570,,
CC(C)c1nn(CC(=O)Nc2ccc3nncn3c2)c(=O)c2ccc(C(C)(C)C)cc12 [X-1048],8.08,270,,
CC(C)c1nn(CC(=O)N[C@H]2C[C@@](C)(O)C2)c(=O)c2ccc(C(C)(C)C)cc12 [X-1049],> 20,426,,
CC(C)c1nn(CC(=O)Nc2ccncn2)c(=O)c2ccc(C(C)(C)C)cc12 [X-1050],> 20,990,,
CC(C)c1nn(CC(=O)Nc2ccc3nncn3n2)c(=O)c2ccc(C(C)(C)C)cc12 [X-1051],7.02,106,,
CC(C)c1nn(CC(=O)Nc2ccc3nncn3c2)c(=O)c2ccc(C(F)(F)C(F)(F)F)cc12 [X-1052],> 20,1260,,
CC(C)c1nn(CC(=O)Nc2ccnnc2)c(=O)c2ccc(C(F)(F)C(F)(F)F)cc12 [X-1053],> 20,3180,,
COC(C)c1ccc2c(=O)n(CC(=O)Nc3ccc4nncn4c3)nc(C(C)C)c2c1 (stereo not drawn) [X-1054],18.6,539,,
COC(C)c1ccc2c(=O)n(CC(=O)N[C@H]3C[C@@](C)(O)C3)nc(C(C)C)c2c1 (stereo partly drawn) [X-1055],> 20,2130,,
COC(C)c1ccc2c(=O)n(CC(=O)Nc3ccncn3)nc(C(C)C)c2c1 (stereo not drawn) [X-1056],14,1610,,
COC(C)(C)c1ccc2c(=O)n(CC(=O)Nc3ccc4nncn4c3)nc(C(C)C)c2c1 [X-1057],17.5,1910,,
COC(C)(C)c1ccc2c(=O)n(CC(=O)N[C@H]3C[C@@](C)(O)C3)nc(C(C)C)c2c1 [X-1058],> 20,4560,,
COC(C)(C)c1ccc2c(=O)n(CC(=O)Nc3ccncn3)nc(C(C)C)c2c1 [X-1059],> 20,2420,,

SMILES,"EC50 (TNF; Homo sapiens, 6 h) [µM]","IC50 (IL-1β; Homo sapiens, 6 h) [nM]",EC50 (TNF) [µM],IC50 (IL-1β) [nM]
CC(C)c1nn(CC(=O)N[C@H]2C[C@@](C)(O)C2)c(=O)c2ccc(C#N)cc12 [X-1060],> 20,1740,,
CC(C)c1nn(CC(=O)Nc2ccncn2)c(=O)c2ccc(C#N)cc12 [X-1061],> 20,> 20000,,
CC(C)c1nn(CC(=O)N[C@H]2C[C@@](C)(O)C2)c(=O)c2ccc(C(C)(F)F)cc12 [X-1062],> 20,90,,
CC(C)c1nn(CC(=O)Nc2ccc3nncn3c2)c(=O)c2ccc(C(C)(F)F)cc12 [X-1063],1.85,16,,
CC(C)c1nn(CC(=O)Nc2ccnnc2)c(=O)c2ccc(C(C)(F)F)cc12 [X-1064],18.9,533,,
CC(C)c1nn(CC(=O)Nc2ccc(=O)n(C)n2)c(=O)c2ccc(C(C)(F)F)cc12 [X-1065],15.7,293,,
CC(C)c1nn(CC(=O)Nc2ccc(=O)n(C)c2)c(=O)c2ccc(C(C)(F)F)cc12 [X-1066],6.78,156,,
CC(C)c1nn(CC(=O)Nc2ccc3nccn3c2)c(=O)c2ccc(C(C)(F)F)cc12 [X-1067],13.2,175,,
CC(C)c1nn(CC(=O)N[C@H]2C[C@@](C)(O)C2)c(=O)c2ccc(C3CC3(F)F)cc12 (stereo partly drawn) [X-1068],> 20,2800,,
CC(C)c1nn(CC(=O)Nc2ccc3nncn3c2)c(=O)c2ccc(C3CC3(F)F)cc12 (stereo not drawn) [X-1069],14.1,1140,,
C[C@]1(O)C[C@@H](NC(=O)Cn2nc(C3CC3)c3cc(Cl)ccc3c2=O)C1 [X-1070],> 20,406,,
O=C(Cn1nc(C2CC2)c2cc(Cl)ccc2c1=O)Nc1ccc2nncn2c1 [X-1071],> 20,398,,
Cn1nc(NC(=O)Cn2nc(C3CC3)c3cc(Cl)ccc3c2=O)ccc1=O [X-1072],> 20,1400,,
CCc1ccc2c(=O)n(CC(=O)Nc3ccc4nncn4c3)nc(C(C)C)c2c1 [X-1073],> 20,220,,
CC(C)c1nn(CC(=O)Nc2ccc3nncn3c2)c(=O)c2ccc(C3(F)CC3)cc12 [X-1074],14.8,27,,
Cc1nccc(NC(=O)Cn2nc(C(C)C)c3cc(C4(F)CC4)ccc3c2=O)c1F [X-1075],> 20,153,,
CC(C)c1nn(CC(=O)Nc2ccc3nncn3c2)c(=O)c2ccc(C(C)(C)F)cc12 [X-1076],19.7,33,,
CC(C)c1nn(CC(=O)Nc2ccc3nccn3c2)c(=O)c2ccc(C(C)(C)F)cc12 [X-1077],16.5,144,,
CC(C)c1nn(CC(=O)Nc2ccc3nncn3c2)c(=O)c2ccc(C3CCC3)cc12 [X-1078],> 20,1310,,
"CC(O)c1nn(CC(=O)Nc2ccn(C(C)C)n2)c(=O)c2ccc(Br)cc12 (stereo not drawn) [X-1079, 2-(6-bromo-4-(1-hydroxyethyl)-1-oxophthalazin-2(1H)-yl)-N-(1-isopropyl-1H-pyrazol-3-yl)acetamide]",> 20,9790,,
CC(O)c1nn(CC(=O)N[C@H]2C[C@@](C)(O)C2)c(=O)c2ccc(Br)cc12 (stereo partly drawn) [X-1080],> 20,502,,
CC(O)c1nn(CC(=O)Nc2ccncn2)c(=O)c2ccc(Br)cc12 (stereo not drawn) [X-1081],> 20,894,,
CC(O)c1nn(CC(=O)Nc2ccc3nncn3c2)c(=O)c2ccc(Br)cc12 (stereo not drawn) [X-1082],> 20,346,,
CC(C)c1nn(CC(=O)Nc2cn3cnnc3cn2)c(=O)c2ccc(C(C)(F)F)cc12 [X-1085],> 20,143,,
CC(C)c1ccc2c(=O)n(CC(=O)Nc3cn4cnnc4cn3)nc(C(C)C)c2c1 [X-1086],> 20,137,,
CO[C@]1(C)C[C@H](NC(=O)Cn2nc(C(C)C)c3cc(Br)ccc3c2=O)C1 [X-1088],> 20,196,,
"CC[C@]1(O[Si](C)(C)C(C)(C)C)C[C@@H](NC(=O)Cn2nc(C(C)C)c3cc(Br)ccc3c2=O)C1 [X-1089, 2-(6-bromo-4-isopropyl-1-oxophthalazin-2(1H)-yl)-N-((1r,3s)-3-((tert-butyldimethylsilyl)oxy)-3-ethylcyclobutyl)acetamide]",,,> 20,> 20000

# From patent publication US20230202989A1, “COMPOUNDS” (JANSSEN PHARMACEUTICA NV, priority 2020, published 2023)
